{"source": "patent US10351621B2", "about": "“Anti-histone therapy in acute kidney injury” (Immunomedics, Inc., priority 2014, dated 2019)", "key": {"[1]": {"tested_on": "human neutrophils", "experiment": "In vitro NET formation in neutrophils stimulated by PMA or necrotic TCs media", "assay_type": "cell-based", "conditions": "PAD inhibitor 200 μM; PMA 25 nM or necrotic TCs media", "procedure": "Neutrophils were isolated from human healthy volunteers using standard dextran sedimentation followed by Ficoll-Hypaque density centrifugation procedures (Brinkmann et al., 2004, Science 303:1532-1535). Blood donors provided written informed consent forms approved by the local ethical committee. Neutrophils were suspended in RPMI medium (2×10^5˜2×10^6 cell/ml) and seeded into 8-well microns slides or 12˜96-well plates (Ibidi, Martinsried, Germany) in a 5% carbon dioxide atmosphere at 37° C. for 30 minute before stimulation. The neutrophils were placed in normal or hypoxia condition (1% oxygen) for 3, 6, or 24 hours, or stimulated by Phorbol 12-myristate 13-acetate (PMA, 25 nM, Sigma-Aldrich), total calf thymus histones (10, 50, or 100 μg/ml), and necrotic conditioned media from TCs (control, hypoxia, H2O2 stimulation) for 3-4 hours. […]\n(§1) In human neutrophil experiments, NETs were quantified by the MPO-DNA sandwich ELISA method using anti-DNA abs (Roche, Mannheim, Germany) and anti-human MPO abs (AbD Serotec) as described (Nakazawa, 2014, J Am Soc Nephrol 25:990-7). In mouse neutrophils experiments, BAL NETs (undiluted) and plasma NETs (×2 diluted in PBS) were evaluated by NE-DNA complex using anti-DNA abs and anti-mouse NE abs (Santa Cruz) as described (Sayah et al., 2015, Am J Respir Crit Care Med 191:455-63). The CitH3 positive NETs were quantified using ImageJ software."}, "[2]": {"tested_on": "HK-2 cells", "experiment": "NETs cytotoxicity to TCs (conditioned NETs media, LDH assay)", "assay_type": "cell-based, human", "conditions": "20 h after addition; neutrophils pre-treated with PAD inhibitor 200 μM", "procedure": "Neutrophils were stimulated by PMA, histones, or necrotic TCs derived conditioned media and 3 hours after incubation the supernatant was replaced with fresh media (RPMI), and the bottom NETs were collected to avoid the contamination of the media with exogenous PMA or necrotic TCs or histones as previously described (Najmeh et al., 2015, J Vis Exp 16:98). After centrifugation (1200 rpm, 5 min), the supernatants were applied to TCs (1:1). At 20 hours after addition of conditioned NETs media, TCs injury was evaluated by LDH assay. To investigate whether the formed NETs affect fresh neutrophils, conditioned NETs media was applied to fresh neutrophils and 4 h after incubation, additional NET formation in fresh neutrophils was evaluated by immunostaining.\nA cell death detection (TUNEL) kit (Roche) was used to quantify dead cells in accordance with the manufacturer's instructions. Systemic dead cell derived DNAs in plasma were quantified by PICOGREEN® dsDNA assay kit (Thermo Fisher Scientific). In vitro, cytotoxicity was evaluated by LDH assay (Roche)."}, "[3]": {"tested_on": "bilateral IRI kidney mice", "experiment": "Bilateral IRI kidney model mice (post-ischemic AKI)", "assay_type": "in vivo", "conditions": "ischemia 35 min, reperfusion 24 h", "procedure": "C57BL/6N male mice were procured from Charles River Laboratories (Sulzfeld, Germany). 6-8 week-old mice (N=5-14) were anesthetized before renal pedicle clamping (unilateral: 15, 25, 35, or 45 min) with a microaneurysm clamp via flank incisions (Medicon, Tuttlingen, Germany). Body temperature was maintained at between 37° C. and 38° C. throughout the procedure by placing the mice on a heating pad. After clamp removal, recovery of blood flow to the kidney was confirmed as evidenced by returning to its original color, before closing the wound. To maintain fluid balance, all mice were supplemented with 0.5 ml of 0.9% NaCl administered peritoneally. Mice were killed after 0 min, 15 min, 30 min, 6 h, 12 h, 15 h, 24 h, 2 d, 3 d, 7 d and 10 days after surgery. Bilateral IRI mice (ischemia 35 min, reperfusion 24 h) were treated with PAD inhibitor (20 mg/kg, intraperitoneal injection; i.p: CALBIOCHEM®), anti-histone IgGs (20 mg/kg, i.p; clone BWA3; IMMUNOMEDICS®, Morris Plains, N.J.), necrosis inhibitor combination (Necrostatinl/Enzo 1.65 mg/kg i.p, Ferrostatin/CALBIOCHEM®, 2 mg/kg i.p, Ciclosporin/Novartis 10 mg/kg, i.v) 2 hours before IRI surgery. Neutrophil depletion was performed as described previously (Huang et al., 2015, Hepatology 62:600-14) with an i.p. injection of 500 μg anti-Ly6G IgGs (1A8) (BIOXCELL®) or control IgGs 24 and 2 hours before IRI surgery.\nFor immunofluorescence, the tissues after sacrifice were fixed with 4% paraformaldehyde for 2 hours, dehydrated with 30% sucrose for 24 hours at 4° C., frozen in OCT (TISSUE-TEK®, OCT compounds, SAKURA®) and cryosectioned (5 μm thick). The CitH3 positive NETs and TUNEL positive necrotic cells were quantified using ImageJ software.\nFor immunostaining, rat anti-mouse Ly6b (neutrophils) ab (AbD Serotec, Oxford, United Kingdom), rabbit citrullinated histone 3 ab (Abcam, Cambridge, United Kingdom), or goat anti neutrophil elastase ab (Santa Cruz Biotechnology, USA) were used. To count the positive cells, 3 high-power fields (100×) were analyzed. BUN and creatinine were measured using urea or creatinine FS kits (DiaSys Diagnostic Systems, Holzheim, Germany) according to the manufacturer's protocols. Mice plasma was analysed for IL-6 and TNF cytokine secretion by ELISA (BD Pharmingen, San Diego, Calif.). Plasma histone was analyzed by western blotting. To prepare a control model with high concentration of histone, lipopolysaccharide (LPS, 20 mg/kg, i.p) was injected into WT mice (8 weeks age, male), and blood samples were taken 6 hours after LPS injection (Li et al., 2011, Surgery 150:442-51). Bronchoalveolar lavage fluid (BAL) in IRI mice was performed as previously described (Sayah et al., 2015, Am J Respir Crit Care Med 191:455-63). The BAL cell number and supernatant NETs were evaluated by cell counter and NE-DNA complexes ELISA, respectively.\nas §1"}, "[4]": {"tested_on": "IRI-induced kidney damage", "conditions": "chemical inhibitors of necroptosis, ferroptosis, MPT-RN; cited from earlier work"}, "[5]": {"target": "DDD of PKA (Homo sapiens, UniProt P13861)", "sequence (P13861 2-45 limits assumed)": "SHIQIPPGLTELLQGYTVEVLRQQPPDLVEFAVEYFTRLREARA", "conditions": "cited from earlier work"}, "[6]": {"tested_on": "RII and RI isoforms of PKA", "conditions": "Gold et al. 2006; cited from earlier work"}, "[7]": {"tested_on": "glomerular endothelial cells, podocytes, and parietal epithelial cells", "experiment": "Histone killing of glomerular cells (summary)", "assay_type": "cell-based, mouse", "conditions": "histones from calf thymus or released by neutrophils undergoing NETosis", "procedure": "Mouse glomerular endothelial cells (GEnC (46)), podocytes (47)), and parietal epithelial cells (PECs, (48)) were cultured in 96 well plates with RPMI media without FCS and PS and allowed to adhere overnight. The cells were stimulated with the different concentrations of total calf thymus histones (10, 20, 30, 40, 50 and 100 μg/ml) with or without histone antibody for another 18-20 h. Cytotoxicity assay was performed using Promega CELLTITER 96® non-radioactive cell proliferation assay (MTT Assay Kit, Mannheim, Germany). Glomerular cells were also incubated with histones with or without anti-histone IgG, heparin and/or aPC. LDH assay using cytotoxicity detection kit (Roche Diagnostics, Mannheim, Germany) was used to assess cell death."}, "[8]": {"tested_on": "PECs", "experiment": "Histone-induced activation of parietal epithelial cells", "assay_type": "cell-based, mouse", "text": "Mitogenic plasma proteins leaking from injured glomerular capillaries cause PEC hyperplasia and glomerular crescent formation (Ryu et al., 2012, J Pathol 228:482; Smeets et al., 2009, J Am Soc Nephrol 20:2593; Smeets et al., 2009, J Am Soc Nephrol 20:2604).\nPrevious reports documented that heparin and recombinant activated protein C (aPC) also block histone toxicity (Xu et al., 2009, Nat Med 15:1318; Wildhagen et al., 2013, Blood 123:1098). […] Thus, extracellular histones activate PECs in a TLR2/4-dependent manner, a process that may act synergistically with other triggers of PEC hyperplasia during crescent formation and that can be blocked by anti-histone IgG, aPC or heparin."}, "[9]": {"tested_on": "glomeruli", "experiment": "Histone toxicity on glomeruli ex vivo", "assay_type": "cell-based, mice", "text": "Whether glomerular toxicity of extracellular histones is TLR2/4-dependent is not clear. To answer this question we exposed glomeruli isolated from wild type and Tlr2/4-deficient mice to histones ex vivo. […] We also studied the effects of extracellular histones on glomeruli in vivo. Because intravenous histone injection kills mice immediately by pulmonary microvascular injury (Xu et al., 2009, Nat Med 15:1318), we injected histones directly into the left renal artery in anaesthetized mice. Unilateral histone injection caused glomerular lesions within 24 hours ranging from minor endothelial fibrinogen positivity to thrombotic microangiopathy and global glomerular necrosis (not shown). The contralateral kidney remained unaffected (not shown)."}, "[10]": {"tested_on": "GBM antiserum-induced glomerulonephritis in mice", "experiment": "Anti-GBM nephritis model, delayed onset of treatment (established disease)", "assay_type": "in vivo", "procedure": "C57BL/6 mice were procured from Charles River (Sulzfeld, Germany). 6-8 week old mice received an intravenous injection of 100 μl of anti-GBM serum (sheep anti-rat glomeruli basement membrane serum procured from Probetex INC, PTX-001). Urine samples were collected at different time points after antiserum injection to evaluate the functional parameters of kidney damage. On day 7 the mice were sacrificed by cervical dislocation to collect plasma and kidney tissue. Kidneys were kept at −80° C. for protein isolation and in RNALATER® solution at −20° C. for RNA isolation. A part of the kidney was also kept in formalin to be embedded in paraffin for histological analysis (Teixeira et al., 2005, Kidney Int 67:514B). We treated groups of mice either with 20 mg/kg, i.p. control IgG or anti-histone antibody (clone BWA-3) to neutralize the effects of extracellular histones.\nRenal sections of 2 μm were stained with periodic acid-Schiff reagent. Glomerular abnormalities were scored in 50 glomeruli per section by a blinded observer. The following criteria were assessed in each of the 50 glomeruli and scored as segmental or global lesions if less or more than 50% of the glomerular tuft were affected by focal necrosis and capsule adhesions. Cellular crescents were assessed separately when more than a single layer of PECs were present around the inner circumference of Bowman' s capsule. Immunostaining was performed as described using the following primary antibodies: for WT-1/nephrin, neutrophils (Serotec, Oxford, UK), Mac-2 (Cedarlane, Ontario, Canada), TNF-α (Abcam, Cambridge, UK) and fibrinogen (Abcam, Cambridge, UK). Stained glomerular cells were quantified in 50 glomeruli per section.\nWe mext examined whether histone neutralization could be therapeutic in established disease. […] In another series of experiments we initiated anti-histone IgG, heparin, and aPC treatments 24 hours after GBM antiserum injection, a time point where massive proteinuria and elevated BUN were already established (not shown). […]"}, "[11]": {"conditions": "in vivo; cited from earlier work"}}, "note": "Entries after “also recorded” stand apart in the source; their conditions may differ."}
{"compound": "NC(=O)[C@H](CCCN=C(N)CCl)NC(=O)c1ccccc1", "note": "[PAD inhibitor, Cl-amidine]", "values": [{"measurement": "induced NET formation in neutrophils (MPO-DNA complex of supernatants)", "setting": "[1]", "result": "abrogated"}, {"measurement": "tubular cell injury by conditioned NETs media (LDH assay)", "setting": "[2]", "result": "abrogated; also recorded: reduced the damage of TCs"}, {"measurement": "NET components in plasma", "setting": "[3]", "result": "substantially reduced"}, {"measurement": "expression of AKI marker genes", "setting": "[3]", "result": "significantly reduced"}, {"measurement": "renal function (plasma creatinine, plasma urea)", "setting": "[3]", "result": "significantly reduced"}, {"measurement": "tissue necrotic area / tubular necrosis", "setting": "[3]; PAS and TUNEL staining", "result": "significantly reduced"}, {"measurement": "protective effect on IRI kidney (overall)", "setting": "[3]; listed as NET inhibitor", "result": "ameliorates"}, {"measurement": "protective effect on IRI kidney (overall)", "setting": "[3]; listed as inhibitor of NET formation", "result": "protected"}, {"measurement": "abundance of NETs in the post-ischemic kidney", "setting": "[3]; treated before surgery", "result": "substantially reduced"}]}
{"compound": "CCOC(=O)c1ccc(NC2CCCCC2)c(N)c1", "note": "[ferrostatin 1]", "values": [{"measurement": "kidney injury", "setting": "[4]", "result": "did not completely prevent"}]}
{"compound": "CN1C(=O)C(Cc2c[nH]c3ccccc23)NC1=S", "note": "(stereo not shown) [necrostatin 1]", "values": [{"measurement": "kidney injury", "setting": "[4]", "result": "did not completely prevent"}]}
{"compound": "CC[C@H]1C[C@H](C)[C@@]2(NC1=O)O[C@@H](C[C@H](O)[C@@H](C)CC/C=C/C=C(\\C)[C@@H]1C/C=C/C=C/[C@H](O)[C@H](C)[C@@H](O)[C@@H](CCC(C)=O)C(=O)N[C@@H](C(C)C)C(=O)N[C@@H](Cc3cccc(O)c3)C(=O)N3CCC[C@H](N3)C(=O)O1)[C@H](C)[C@H](O)[C@@H]2C", "note": "[sanglifehrin A]", "values": [{"measurement": "kidney injury", "setting": "[4]", "result": "did not completely prevent"}]}
{"compound": "RII selective AD sequence, SEQ ID NO:21 QIEYLAKQIVDNAIQQA [AKAP-IS]", "values": [{"measurement": "Kd", "setting": "[5]; Alto et al. 2003, read-out: binding constant for DDD", "result": 0.4, "unit": "nM"}, {"measurement": "affinity for the MI DDD sequence", "setting": "[5]; Hundsrucker et al. 2006", "result": "particularly high affinities"}]}
{"compound": "SuperAKAP-IS: SEQ ID NO:30 QIEYVAKQIVDYAIHQA", "values": [{"measurement": "selectivity for the RII isoform of PKA compared with the RI isoform", "setting": "[6]", "result": "five order of magnitude higher"}]}
{"compound": "heparin", "values": [{"measurement": "killing of glomerular cells by histones / extracellular histone toxicity in vitro", "setting": "[7]", "result": "prevented"}, {"measurement": "PEC activation by histones", "setting": "[8]", "result": "protective effect"}, {"measurement": "histone toxicity on glomeruli ex vivo", "setting": "[9]", "result": "completely blocked"}, {"measurement": "renal dysfunction and structural injury during severe GN", "setting": "[10]; delayed onset of histone blockade", "result": "protects"}, {"measurement": "severe glomerulonephritis in mice with established disease", "setting": "[10]; mouse, in vivo", "result": "abrogated"}, {"measurement": "all aspects of GBM antiserum-induced severe GN", "setting": "[10]; pre-emptive as well as delayed onset of histone neutralization", "result": "abrogates"}]}
{"compound": "veltuzumab: humanized IgG1 antibody against CD20", "values": [{"measurement": "immunogenicity in subjects compared with rituximab", "setting": "[11]", "result": "less immunogenic"}]}
